The source of these data is paper PMC8219695 (Nature Communications, 2021).

Where “and” joins values, the source holds several entries; their conditions need not be identical. Equal values may be shown once.

In assay [1] the target is T1, mMOR (Mus musculus, UniProt P42866).
T1 construct: signal peptide (heterologous, not specified) (N); expressed in transfected cells; pcDNA3.1(+) construct made in house
The experiment in a line: CAMYEL BRET cAMP agonist assay at mMOR. The class given is cell-based. To be noted: mMOR, single replicates, source data Fig 6b. In general terms: In BRET a luciferase serves as donor, and the signal depends on an acceptor being close.

In the next assay the target is T2, hMOR (Homo sapiens, UniProt P35372).
T2 construct: expressed in transfected cells; plasmid a gift from Dr. Nevin Lambert
T2 sequence (P35372 whole entry): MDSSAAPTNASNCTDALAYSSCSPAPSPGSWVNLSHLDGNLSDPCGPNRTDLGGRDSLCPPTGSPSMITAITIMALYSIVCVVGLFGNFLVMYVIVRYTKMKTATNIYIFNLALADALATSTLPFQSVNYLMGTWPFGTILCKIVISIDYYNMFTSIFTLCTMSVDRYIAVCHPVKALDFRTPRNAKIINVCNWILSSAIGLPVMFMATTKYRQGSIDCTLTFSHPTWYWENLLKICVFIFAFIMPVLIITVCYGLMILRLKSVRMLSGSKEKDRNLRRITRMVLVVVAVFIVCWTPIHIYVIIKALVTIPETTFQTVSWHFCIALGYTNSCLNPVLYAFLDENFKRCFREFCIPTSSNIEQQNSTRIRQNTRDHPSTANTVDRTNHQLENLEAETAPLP
The experiment in a line: CAMYEL BRET cAMP agonist assay at hMOR. It counts as cell-based. The following applies: hMOR, single replicates, source data Fig 6c.

The target in assay [2] is T1, mMOR. Briefly: BRET-based Nb33 recruitment assay at mMOR. The class given is cell-based. To be noted: single replicates, source data Fig 7a.
In a further assay the test system is CD1 mice. Briefly: Tail-flick antinociception in CD1 mice. The class given is in vivo, mouse. To be noted: sc; for Tail flick (%MPE), average / Tail flick latency in secs, Av / Tail flick latency in secs, av: average of 8 animals; for Tail flick (%MPE) / Tail flick latency: individual animals.
The mark [3] stands for this setting: Log[drug] (M) -13, cAMP inhibition as % of DAMGO.

T1 sequence (P42866 whole entry): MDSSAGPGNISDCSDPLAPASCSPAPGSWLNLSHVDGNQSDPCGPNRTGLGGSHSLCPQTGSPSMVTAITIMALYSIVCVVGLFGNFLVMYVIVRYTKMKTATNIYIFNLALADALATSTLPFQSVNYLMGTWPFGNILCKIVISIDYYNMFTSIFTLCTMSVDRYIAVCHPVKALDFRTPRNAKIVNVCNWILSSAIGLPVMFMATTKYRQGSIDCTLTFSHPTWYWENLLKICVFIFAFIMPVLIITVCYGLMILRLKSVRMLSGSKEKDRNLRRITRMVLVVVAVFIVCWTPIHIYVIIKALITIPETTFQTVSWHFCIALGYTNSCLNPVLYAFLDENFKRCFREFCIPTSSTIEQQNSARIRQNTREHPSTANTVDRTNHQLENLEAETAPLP

As to `C[C@@H](NC(=O)[C@@H](N)Cc1ccc(O)cc1)C(=O)NCC(=O)N(C)[C@@H](Cc1ccccc1)C(=O)NCCO` [DAMGO, [D-Ala^2, N-Me-Phe^4, Gly^5-ol]-enkephalin, reference compound], the cAMP % at mMOR [1] (Log[drug] (M) -5) is 102.015% and 97.5784% and 104.579% and 96.6295% and 98.3687% and 104.58% and 107.049% and 113.123% and 108.981%; at mMOR [1] (Log[drug] (M) -6) it was 105.759% and 89.6935% and 102.343% and 97.3213% and 106.448% and 102.195% and 98.7916% and 100.678% and 92.5396%; on mMOR [1] (Log[drug] (M) -7), 94.7459% and 89.7557% and 84.4404% and 103.092% and 95.8909% and 105.68% and 91.1195% and 91.3937% and 91.5037%; on mMOR [1] (Log[drug] (M) -8), 54.4279% and 44.3207% and 58.3553% and 86.2498% and 84.9633% and 88.7212% and 82.7217% and 81.9867% and 95.6687%; on mMOR [1] (Log[drug] (M) -9), 14.6461% and 18.37% and 18.8483% and 47.9% and 59.4105% and 56.9807% and 36.8388% and 43.8092% and 46.1925%; on mMOR [1] (Log[drug] (M) -10), 1.728% and 0.08907% and -1.817% and 16.1543% and 6.811% and 19.2753% and 3.3167% and 1.639% and 10.5208%. For the same compound, the cAMP % was 6.094% and 2.441% and 8.528% and 5.436% and 3.7044% and 1.349% and 1.812% and -1.084% and -0.7282% on mMOR [1] (Log[drug] (M) -11); -0.3434% and 15.5805% and 1.417% and -1.196% and 0.717% and 0.4788% and 1.6944% and 5.324% and 4.584% at mMOR [1] (setting [3]); 103.124% and 109.477% and 102.684% and 110.427% and 108.861% and 108.591% and 112.306% and 111.09% at hMOR (Log[drug] (M) -5); 98.2575% and 92.1607% and 109.669% and 106.978% and 96.9047% and 104.556% and 112.319% and 93.9893% and 98.3933% on hMOR (Log[drug] (M) -6); 84.826% and 103.003% and 98.5438% and 92.203% and 94.9009% and 88.7302% and 91.8158% and 88.9226% and 95.649% on hMOR (Log[drug] (M) -7); 90.1183% and 95.617% and 94.9621% and 80.7074% and 80.5991% and 79.7704% and 101.871% on hMOR (Log[drug] (M) -8). Also, the cAMP % at hMOR (Log[drug] (M) -9) is 83.2929% and 84.9251% and 85.9398% and 87.1639% and 70.6227% and 86.8862% and 70.8595%; at hMOR (Log[drug] (M) -10), 23.9872% and 31.9271% and 31.1042% and 26.2749% and 20.3118% and 16.9632% and 5.794% and 13.2278% and 15.6275%; at hMOR (Log[drug] (M) -11) it was 7.017% and -4.712% and 3.0598% and 13.9517% and -4.528% and 3.447% and 8.388% and -3.773% and -4.615%; on hMOR (setting [3]), 1.163% and -6.717% and 5.554% and 6.145% and -10.7075% and 4.5627% and 2.101% and 2.953% and 0.8452%. Besides, the “Nb33 BRET assay at mMOR, response” value at mMOR [2] (Log[drug] (M) -4) is 116.548 and 99.0991 and 123.097 and 102.778 and 111.876 and 86.5818 and 91.4453 and 105.421 and 94.7199 and 96.8839 and 110.228 and 105.758 and 96.6672 and 105.453 and 97.0797 and 106.37 and 115.431 and 97.3489 and 102.87 and 112.822 and 97.3627; on mMOR [2] (Log[drug] (M) -5) it was 78.3004 and 105.49 and 93.3001 and 92.3549 and 96.5229 and 94.3135 and 107.346 and 108.338 and 93.8039 and 95.4962 and 95.2898 and 96.1807 and 98.423 and 95.5858 and 88.3338 and 114.596 and 90.0997 and 91.8485 and 91.211 and 101.524 and 97.9528; on mMOR [2] (Log[drug] (M) -8), 25.6157 and -0.9817 and 2.276 and 16.2956 and 7.2069 and 3.257 and 8.405 and 5.376 and 16.5535 and 18.8366 and 6.195 and 12.7572 and 5.664 and 5.763 and 13.2066 and 17.6481; at mMOR [2] (Log[drug] (M) -9), 2.545 and 18.2179 and 1.398 and 13.71 and 1.7362 and 12.589 and -5.813 and 7.089 and -10.8919 and 4.229 and 0.1289 and 0.7333 and 3.575 and -0.9155 and 34.3413 and 6.961 and -1.352 and 3.399 and 3.853 and 3.842 and 2.552; at mMOR [2] (Log[drug] (M) -10) it was 3.45 and -1.0779 and -15.1434 and 16.2214 and 5.631 and -0.462 and -5.169 and -3.138 and 4.714 and -1.576 and 1.587 and 11.4832 and -0.3739 and -1.213 and -14.9335 and -0.4874 and 0.03891 and 0.4485 and -4.142 and 2.431 and 1.7112.

Take `CC[C@@H]1CN2CC[C@@]3(O)C(=Nc4cc(Cl)cc(OC)c43)[C@@H]2C[C@@H]1/C(=C\OC)C(=O)OC` [11-Cl-7OH]: the “%MPE” value in the assay on CD1 mice (5 mg/kg, 15 min) came to 2.8 %MPE; in the assay with CD1 mice (5 mg/kg, 30 min), 1.6 %MPE; in the assay with CD1 mice (5 mg/kg, 60 min) it was 3.3 %MPE; in the assay on CD1 mice (25 mg/kg, 15 min), 2.83 %MPE; in the assay with CD1 mice (25 mg/kg, 30 min), 5.91 %MPE; in the assay on CD1 mice (25 mg/kg, 60 min), 6.34 %MPE. Also, the “%MPE” value with CD1 mice (25 mg/kg, 150 min) was found to be 2.66 %MPE. The “Tail flick (%MPE), average” value is recorded as 2.3 %MPE with CD1 mice (5 mg/kg, 15 min); 1.3 %MPE in the assay on CD1 mice (5 mg/kg, 30 min); 2.6 %MPE in the assay on CD1 mice (25 mg/kg, 15 min); 5.5 %MPE with CD1 mice (25 mg/kg, 30 min); 6.0 %MPE in the assay on CD1 mice (25 mg/kg, 60 min); -0.273 %MPE in the assay with CD1 mice (25 mg/kg, 150 min). Besides, the “Tail flick latency in secs, Av” value with CD1 mice (5 mg/kg, 15 min) came out at 3.3 s; in the assay on CD1 mice (5 mg/kg, 30 min), 3.2 s; in the assay with CD1 mice (5 mg/kg, 60 min), 3.3 s. Also, the “Tail flick (%MPE)” value with CD1 mice (5 mg/kg, 15 min) is -5.1 %MPE and -18.5 %MPE and 0.7 %MPE and 1.6 %MPE (2×) and 16.4 %MPE and 17.5 %MPE and 4.0 %MPE; in the assay with CD1 mice (5 mg/kg, 30 min), -2.2 %MPE and -3.2 %MPE and 0.7 %MPE and -10.9 %MPE and 7.5 %MPE and 4.7 %MPE and 10.0 %MPE and 4.0 %MPE; in the assay on CD1 mice (5 mg/kg, 60 min), -2.9 %MPE and -16.1 %MPE and 7.0 %MPE and -1.6 %MPE and 1.5 %MPE and -10.9 %MPE and 21.3 %MPE and 20.0 %MPE; in the assay on CD1 mice (25 mg/kg, 15 min), 12.5 %MPE and -0.8 %MPE and 0.7 %MPE and -0.7 %MPE (2×) and 10.4 %MPE and -3.5 %MPE and 2.7 %MPE; with CD1 mice (25 mg/kg, 30 min) it was 12.5 %MPE and -11.5 %MPE and 9.0 %MPE and 3.6 %MPE and 10.1 %MPE and 10.4 %MPE and 3.5 %MPE and 6.8 %MPE; with CD1 mice (25 mg/kg, 60 min) it was 7.5 %MPE and -7.7 %MPE and 10.3 %MPE and 2.1 %MPE and 12.2 %MPE and 22.1 %MPE and 0.7 %MPE (2×). Moreover, the “Tail flick (%MPE)” value with CD1 mice (25 mg/kg, 150 min) was -10.0 %MPE and 3.1 %MPE and 2.8 %MPE and -5.0 %MPE and 4.7 %MPE and 2.9 %MPE and -0.7 %MPE and 0.0 %MPE. The “Tail flick latency” value is 2.75 secs and 2.65 secs and 2.95 secs and 3.7 secs (2×) and 4.4 secs and 3.4 secs and 2.8 secs in the assay on CD1 mice (5 mg/kg, 15 min); 2.95 secs (2×) and 3.6 secs and 2.9 secs and 3.8 secs and 3.9 secs and 2.8 secs (2×) in the assay with CD1 mice (5 mg/kg, 30 min); 2.9 secs (2×) and 2.8 secs and 3.4 secs (2×) and 3.5 secs and 3.7 secs and 4 secs in the assay on CD1 mice (5 mg/kg, 60 min); 3.0 secs (2×) and 3.5 secs and 2.8 secs and 2.6 secs (2×) and 3.1 secs and 2.9 secs in the assay on CD1 mice (25 mg/kg, 15 min); 3.0 secs and 2.8 secs and 3.4 secs (2×) and 3.3 secs and 3.1 secs (2×) and 3.2 secs in the assay with CD1 mice (25 mg/kg, 30 min); 2.6 secs and 3.0 secs and 3.5 secs (2×) and 3.2 secs and 4.0 secs and 2.9 secs and 2.8 secs in the assay on CD1 mice (25 mg/kg, 60 min). In the assay with CD1 mice (25 mg/kg, 150 min), the “Tail flick latency” value is 2.3 secs and 3.7 secs and 3.0 secs and 2.6 secs and 2.9 secs (2×) and 3.3 secs and 2.5 secs. For the same compound, the “Tail flick latency in secs, av” value amounted to 2.9 s with CD1 mice (25 mg/kg, 15 min); 3.1 s in the assay with CD1 mice (25 mg/kg, 30 min); 3.2 s with CD1 mice (25 mg/kg, 60 min); 2.9 s in the assay with CD1 mice (25 mg/kg, 150 min).

`CN1CC[C@]23c4c5ccc(O)c4O[C@H]2[C@@H](O)C=C[C@H]3[C@H]1C5` [Morphine, morphine, reference compound]: in the assay on CD1 mice (Fig 9b, Morphine 10 mg/kg), the “Tail flick (%MPE)” value is 32.79 %MPE and 42.86 %MPE and 100.00 %MPE (6×) and 61.73 %MPE and 52.00 %MPE; the Tail flick latency is 5.9 and 6 and 10 (6×) and 6.9 and 6.4.
